Laboratory results reported in patent publication US12059400B2, “Medical compound” (VERA SALUS RICERCA S.R.L., priority 2017, dated 2024).

Key:
[1] = test system: human colon carcinoma cells (HCT116); test: Cell proliferation, crystal violet method; assay type: cell-based; conditions: for IC50: Homo sapiens, HCT-116, crystal violet, spectrophotometer, read-out: IC50 anti-proliferative effect, CRC (HCT116)
Description: (§1) The compound according to the invention, and in particular the synthetic quercetin derivatives described and illustrated herein were investigated in vitro by using human tumour cells and assessing their impact on the tumour proliferative capacity, with regard to the tumours described above. In particular, the following human tumour cell lines were assessed experimentally: 1) HCT116, colon adenocarcinoma cells; 2) H1299, lung adenocarcinoma cells; 3) A375, melanoma cells, and 4) A431, squamous skin cell carcinoma; 5) 786-0, renal carcinoma cells; 6) PC3, prostate carcinoma cells; 7) BT549, mammary carcinoma cells; 8) CAL27, tongue carcinoma cells (belonging to the head-and-neck carcinomas); 9) HepG2, hepatocellular carcinoma cells; 10) PANC-1, pancreas carcinoma cells; 11) T24, bladder carcinoma cells; 12) OVCAR-3, ovarian carcinoma cells. In addition, a normal human cell line, WS1 (skin fibroblasts) was also treated with the novel synthetic compounds.
(§2) Cell proliferation was quantified by the crystal violet method with a spectrophotometer. In short, after acquiring serial images (0, 24 and 48 hrs) with the EVOS XL Cell Imaging System microscope (Thermo Fisher Scientific), the cells imaged at 48 hrs were fixed with paraformaldehyde (4%) and stained with Crystal Violet (1%). Then, the specific absorbance (λ=590 nm) at 48 hrs was measured with a spectrophotometer (Infinite®200 PRO, Tecan). Data analysis was carried out by using ad-hoc Excel files for graphical representation and statistical processing (t-test). Moreover, the results obtained with Crystal Violet were confirmed by using another cell proliferation assessment method based on the real time cellular analyzer XCELLigence RTCA DP (ACEA Biosciences, Inc.). This tool allows cell growth to be monitored from electrical impedance-derived quantitative values (the so-called Cell Index) measured by tiny electrodes located at the base of the culture wells. Proliferation is monitored for several days (5-7) by setting a Cell Index per minute measure on the instrument. The data are analysed by processing various parameters calculated by the dedicated software, such as the cell duplication time, the slope and the Max Cell Index.
(§3) Cell proliferation was quantitated spectrophotometrically by the crystal violet method.

[2] = test system: human melanoma cells (A375); test: Cell proliferation, crystal violet method; assay type: cell-based; conditions: for IC50: Homo sapiens, A-375, crystal violet, spectrophotometer, read-out: IC50 anti-proliferative effect, Melanoma (A375)
Description: as §1, §2, §3

Structure (SMILES) | IC50 [1] | IC50 [2] | HCT116 cell growth vs vehicle control ([1]; 10 μM and 30 μM, FIG. 15) | A375 cell growth vs vehicle control ([2]; 10 μM and 30 μM, FIG. 14) | HCT116 cell growth vs vehicle control ([1]; 100 μM, FIG. 3a, 3b, 13a, 13b) | HCT116 cell growth vs vehicle control ([1]; 30 μM and 100 μM, FIG. 16) | A375 cell growth vs vehicle control ([2]; 30 μM and 100 μM, FIG. 16)
O=C(CCCOc1c(-c2ccc(O)c(O)c2)oc2cc(O)cc(O)c2c1=O)NCC1CCC(CNC(=O)CCCOc2c(-c3ccc(O)c(O)c3)oc3cc(O)cc(O)c3c2=O)CC1 (stereo not shown) [Compound 15d] | 12.1 µM | 7.16 µM | significantly inhibited | significantly inhibited | – | – | –
O=C(CCCOc1c(-c2ccc(O)c(O)c2)oc2cc(O)cc(O)c2c1=O)N[C@H]1CCCC[C@H]1NC(=O)CCCOc1c(-c2ccc(O)c(O)c2)oc2cc(O)cc(O)c2c1=O [Compound 15a] | 13.3 µM | 23 µM | significantly inhibited | significantly inhibited | – | – | –
NCCOCCOc1c(-c2ccc(O)c(O)c2)oc2cc(O)cc(O)c2c1=O [Compound 27] | 378 µM | – | – | – | greater anti-proliferative effects | – | –
O=C(CCCOc1c(-c2ccc(O)c(O)c2)oc2cc(O)cc(O)c2c1=O)NCCCOCCOCCOCCCNC(=O)CCCOc1c(-c2ccc(O)c(O)c2)oc2cc(O)cc(O)c2c1=O [Compound 15b] | 18.6 µM | 24.6 µM | significantly inhibited | significantly inhibited | – | – | –
O=C(CCCOc1c(-c2ccc(O)c(O)c2)oc2cc(O)cc(O)c2c1=O)NCc1ccc(CNC(=O)CCCOc2c(-c3ccc(O)c(O)c3)oc3cc(O)cc(O)c3c2=O)cc1 [Compound 15c] | 15.8 µM | 15.5 µM | significantly inhibited | significantly inhibited | – | – | –
CCCCCCCCCCCCCCCC(=O)NCCc1ccc(OCCCC(=O)NCCOCCOc2c(-c3ccc(O)c(O)c3)oc3cc(O)cc(O)c3c2=O)c(OCCCC(=O)NCCOCCOc2c(-c3ccc(O)c(O)c3)oc3cc(O)cc(O)c3c2=O)c1 [Compound 36] | 112 µM | 89.8 µM | – | – | – | inhibit | inhibit

Continued, in another order:

IC50 [1] | IC50 [2] | Structure (SMILES) | HCT116 cell growth vs vehicle control ([1]; 10 μM and 30 μM, FIG. 15) | A375 cell growth vs vehicle control ([2]; 10 μM and 30 μM, FIG. 14) | HCT116 cell growth vs vehicle control ([1]; 100 μM, FIG. 3a, 3b, 13a, 13b) | HCT116 cell growth vs vehicle control ([1]; 30 μM and 100 μM, FIG. 16) | A375 cell growth vs vehicle control ([2]; 30 μM and 100 μM, FIG. 16)
407 µM | > 1000 µM | O=C(NCCOCCOc1c(-c2ccc(O)c(O)c2)oc2cc(O)cc(O)c2c1=O)C1CC(C(=O)NCCOCCOc2c(-c3ccc(O)c(O)c3)oc3cc(O)cc(O)c3c2=O)CC(C(=O)NCCOCCOc2c(-c3ccc(O)c(O)c3)oc3cc(O)cc(O)c3c2=O)C1 (stereo not shown) [Compound 22b] | – | – | – | – | –
5.93 µM | 7.84 µM | COc1ccc(-c2ccc(C(=O)NCCOCCOc3c(-c4ccc(O)c(O)c4)oc4cc(O)cc(O)c4c3=O)cc2)cc1 [Compound 29g] | significantly inhibited | significantly inhibited | – | – | –
3.64 µM | 7.03 µM | CCCCCCCC/C=C\CCCCCCCC(=O)NCCOCCOc1c(-c2ccc(O)c(O)c2)oc2cc(O)cc(O)c2c1=O [Compound 29c] | significantly inhibited | significantly inhibited | – | – | –
15.7 µM | 5.21 µM | CCCCCCCCCCCCCCCC(=O)NCCOCCOc1c(-c2ccc(O)c(O)c2)oc2cc(O)cc(O)c2c1=O [Compound 29a] | significantly inhibited | significantly inhibited | – | – | –
> 1000 µM | – | O=C(CCCC(=O)NCCOCCOc1c(-c2ccc(O)c(O)c2)oc2cc(O)cc(O)c2c1=O)NCCOCCOc1c(-c2ccc(O)c(O)c2)oc2cc(O)cc(O)c2c1=O [Compound 19a] | – | – | – | – | –
49.9 µM | 136 µM | O=C(NCCOCCOc1c(-c2ccc(O)c(O)c2)oc2cc(O)cc(O)c2c1=O)c1cc(C(=O)NCCOCCOc2c(-c3ccc(O)c(O)c3)oc3cc(O)cc(O)c3c2=O)cc(C(=O)NCCOCCOc2c(-c3ccc(O)c(O)c3)oc3cc(O)cc(O)c3c2=O)c1 [Compound 22a] | – | – | – | inhibit | inhibit
> 1000 µM | > 1000 µM | CCCCCCCCCCCCCCCCCCCCCC(=O)NCCOCCOc1c(-c2ccc(O)c(O)c2)oc2cc(O)cc(O)c2c1=O [Compound 29b] | – | – | – | – | –
